According to patent publication US20260055097A9, “NRF2 PROTEIN DEGRADERS” (Ganymede Oncology, Inc., priority 2022, published 2026):
Read-outs that look alike come from different tables or passages of the source.

How the values were obtained:
Type in all cases: cell-based
[1] = tested on: A549; experiment: Cancer cell viability, A549 (CellTiter-Glo); details: Homo sapiens, 72 h, A549 cells, 3 days, read-out: Cellular IC50 (μM) A549
Experimental: Representative Compounds of the Disclosure were tested in A549 (Vendor: ATCC; Cat #CCL-185; Description: lung, carcinoma) and/or LK-2 (Vendor: Riken; Cat #RCB1970; Description: lung, squamous cell carcinoma) cellular viability assays according to the following general protocol. • 1. Observed the cells under microscope. • 2. Aspirated the media and added 5 mL trypsin and incubate for 3 mins. • 3. Added 10 mL fresh media and harvested all the cells in to 15 mL tubes. • 4. Centrifuged the cells at 1000 rpm for 5 mins. • 5. Re-suspended the cells with 11 mL media and took 1 mL to determine the cell number and viability. • 6. Prepared cells suspension at 20 K/mL (A549) or 35 K/mL (LK-2) • 7. Seeded the cells into 96-well plate and incubated for overnight. • 8. […] After 3 days, took out the plates from the incubator and observed the cells under microscope. • 10. Passed a film at the bottom of the plates. • 11. Equilibrated the plate and its contents at room temperature for approximately 30 minutes. • 12. Thawed the CellTiter-Glo® Buffer and equilibrated to room temperature prior to use. • 13. Equilibrated the lyophilized CellTiter-Glo® Substrate to room temperature prior to use. • 14. Transferred 100 ml of CellTiter-Glo® Buffer into the amber bottle containing CellTiter-Glo® Substrate to reconstituted the lyophilized enzyme/substrate mixture. • 15. Mixed by gently vortexing, swirling or inverting the contents to obtain a homogeneous solution. • 16. Added 100 μL CellTiter-Glo® Reagent into each well • 17. Mixed contents for 15 minutes on an orbital shaker to induce cell lysis. • 18. Recorded luminescence with EnSpire machine. • 19. Passed the raw data into the file and analyzed the data with XLfit software.

[2] = tested on: LK-2; experiment: Cancer cell viability, LK-2 (CellTiter-Glo); details: LK-2 cells, 3 days, read-out: Cellular IC50 (μM) LK-2
Experimental: Representative Compounds of the Disclosure were tested in A549 (Vendor: ATCC; Cat #CCL-185; Description: lung, carcinoma) and/or LK-2 (Vendor: Riken; Cat #RCB1970; Description: lung, squamous cell carcinoma) cellular viability assays according to the following general protocol. • 1. Observed the cells under microscope. • 2. Aspirated the media and added 5 mL trypsin and incubate for 3 mins. • 3. Added 10 mL fresh media and harvested all the cells in to 15 mL tubes. • 4. Centrifuged the cells at 1000 rpm for 5 mins. • 5. Re-suspended the cells with 11 mL media and took 1 mL to determine the cell number and viability. • 6. Prepared cells suspension at 20 K/mL (A549) or 35 K/mL (LK-2) • 7. Seeded the cells into 96-well plate and incubated for overnight. • 8. Added compounds into each well with a HPD300 machine (nine three-fold dilutions typically starting at 30 µM final concentration) and incubated for 3 days. • 9. After 3 days, took out the plates from the incubator and observed the cells under microscope. • 10. Passed a film at the bottom of the plates. • 11. Equilibrated the plate and its contents at room temperature for approximately 30 minutes. • 12. Thawed the CellTiter-Glo® Buffer and equilibrated to room temperature prior to use. • 13. Equilibrated the lyophilized CellTiter-Glo® Substrate to room temperature prior to use. • 14. Transferred 100 ml of CellTiter-Glo® Buffer into the amber bottle containing CellTiter-Glo® Substrate to reconstituted the lyophilized enzyme/substrate mixture. • 15. Mixed by gently vortexing, swirling or inverting the contents to obtain a homogeneous solution. • 16. Added 100 μL CellTiter-Glo® Reagent into each well • 17. Mixed contents for 15 minutes on an orbital shaker to induce cell lysis. • 18. Recorded luminescence with EnSpire machine. • 19. Passed the raw data into the file and analyzed the data with XLfit software.

[3] = biological target: T1, Nrf2 (Homo sapiens, UniProt Q16236); experiment: Nrf2 degradation in A549 HiBiT-Nrf2 cells, Nano-Glo HiBiT lytic detection (HiBiT readout); set-up: host or cells: A549 HiBiT-Nrf2 cells (engineered line bought from Promega)
T1 sequence (Q16236 1-605): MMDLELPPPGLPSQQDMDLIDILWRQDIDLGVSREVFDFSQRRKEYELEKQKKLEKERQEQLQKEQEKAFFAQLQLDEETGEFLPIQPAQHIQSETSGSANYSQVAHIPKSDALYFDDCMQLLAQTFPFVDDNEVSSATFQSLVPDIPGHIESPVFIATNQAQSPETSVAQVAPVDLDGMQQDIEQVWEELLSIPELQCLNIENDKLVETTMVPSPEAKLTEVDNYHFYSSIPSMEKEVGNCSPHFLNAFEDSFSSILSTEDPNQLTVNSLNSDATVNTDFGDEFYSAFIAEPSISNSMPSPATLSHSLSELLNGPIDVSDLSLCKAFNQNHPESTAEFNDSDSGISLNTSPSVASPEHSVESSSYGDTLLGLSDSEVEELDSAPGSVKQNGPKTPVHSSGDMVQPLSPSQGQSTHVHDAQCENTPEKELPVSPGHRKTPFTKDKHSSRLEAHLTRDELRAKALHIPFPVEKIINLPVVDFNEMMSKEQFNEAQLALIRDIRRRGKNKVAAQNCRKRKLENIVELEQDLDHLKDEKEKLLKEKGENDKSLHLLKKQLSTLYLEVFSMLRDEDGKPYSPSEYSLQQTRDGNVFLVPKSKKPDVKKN
Experimental: A549 HiBiT-Nrf2 cells (Promega, Cat. No. CS3023219) were seeded into 384-well plates at cell density of 5,000 cells/well in 40 μL of cell culture medium (Ham's F-12 Nutrient Mix supplemented with 10% FBS and 1% antibiotic-antimycotic).
The next day, cells were treated with representative Compounds of the Disclosure and incubated for 6 h and 20 h at 37° C., 5% CO2. Staurosporine was used as a control.
At the end of incubation Nrf2 degradation (HiBiT readout) and cell viability (CellTiter-Glo readout) were determined. For HiBiT readout, Nano-Glo HiBiT Reagent mix (Promega, Cat. No. N3050) was added to wells, plates were incubated 2 min on an orbital shaker and incubated at room temperature in the dark for additional 30 minutes. At the end of incubation luminescence was measured using ultrasensitive luminescence mode (Envision, Perkin Elmer).

[4] = 6 h, read-out: DC50 (nM) at 6 h
[5] = 20 h, read-out: DC50 (nM) at 20 h

Compound	IC50 [1] [µM]	IC50 ([2]; Homo sapiens, LK-2, 72 h) [µM]	DC50 [3, 4] [nM]	DC50 [3, 5] [nM]	IC50 [2] [µM]
Cc1ccccc1C(=O)N1CCc2cc(-c3nc(NC(=O)Cc4cccc(OCCOCCOc5ccc6c(c5)C(=O)N(C5CCC(=O)NC5=O)C6=O)c4)sc3C)ccc21 (stereo not drawn) [Cpd. No. 18, 2-(3-(2-(2-((2-(2,6-dioxopiperidin-3-yl)-1,3-dioxoisoindolin-5-yl)oxy)ethoxy)ethoxy)phenyl)-N-(5-methyl-4-(1-(2-methylbenzoyl)indolin-5-yl)thiazol-2-yl)acetamide]	0.1	0.04	300 to 3000	> 3000	
Cc1ccccc1C(=O)N1CCc2cc(-c3nc(NC(=O)Cc4cccc(OCCOCCNc5ccc6c(c5)C(=O)N(C5CCC(=O)NC5=O)C6=O)c4)sc3C)ccc21 (stereo not drawn) [Cpd. No. 20, 2-(3-(2-(2-((2-(2,6-dioxopiperidin-3-yl)-1,3-dioxoisoindolin-5-yl)amino)ethoxy)ethoxy)phenyl)-N-(5-methyl-4-(1-(2-methylbenzoyl)indolin-5-yl)thiazol-2-yl)acetamide]	0.3	0.06	300 to 3000	300 to 3000	
Cc1sc(NC(=O)Cc2cccc(OCCOCCNc3ccc4c(c3)C(=O)N(C3CCC(=O)NC3=O)C4=O)c2)nc1-c1ccc2c(c1)CCN2C(=O)c1cncn1C (stereo not drawn) [Cpd. No. 23, 2-(3-(2-(2-((2-(2,6-dioxopiperidin-3-yl)-1,3-dioxoisoindolin-5-yl)amino)ethoxy)ethoxy)phenyl)-N-(5-methyl-4-(1-(1-methyl-1H-imidazole-5-carbonyl)indolin-5-yl)thiazol-2-yl)acetamide]	0.09	0.02			
Cc1ccccc1C(=O)N1CCc2cc(-c3nc(NC(=O)Cc4cccc(OCCCCN5CCN(c6ccc7c(c6)C(=O)N(C6CCC(=O)NC6=O)C7=O)CC5)c4)sc3C)ccc21 (stereo not drawn) [Cpd. No. 26, 2-(3-(4-(4-(2-(2,6-dioxopiperidin-3-yl)-1,3-dioxoisoindolin-5-yl)piperazin-1-yl)butoxy)phenyl)-N-(5-methyl-4-(1-(2-methylbenzoyl)indolin-5-yl)thiazol-2-yl)acetamide]	> 30	0.8			
Cc1sc(NC(=O)Cc2ccc(F)c(OCCOCCNc3ccc4c(c3)C(=O)N(C3CCC(=O)NC3=O)C4=O)c2)nc1-c1ccc2c(c1)CCN2C(=O)C1CC1 (stereo not drawn) [Cpd. No. 27, N-(4-(1-(cyclopropanecarbonyl)indolin-5-yl)-5-methylthiazol-2-yl)-2-(3-(2-(2-((2-(2,6-dioxopiperidin-3-yl)-1,3-dioxoisoindolin-5-yl)amino)ethoxy)ethoxy)-4-fluorophenyl)acetamide]	0.08	0.03	< 300	< 300	
Cc1sc(NC(=O)Cc2ccc(F)c(OCCOCCNc3ccc4c(c3)CN(C3CCC(=O)NC3=O)C4=O)c2)nc1-c1ccc2c(c1)CCN2C(=O)C1CC1 (stereo not drawn) [Cpd. No. 28, N-(4-(1-(cyclopropanecarbonyl)indolin-5-yl)-5-methylthiazol-2-yl)-2-(3-(2-(2-((2-(2,6-dioxopiperidin-3-yl)-1-oxoisoindolin-5-yl)amino)ethoxy)ethoxy)-4-fluorophenyl)acetamide]	0.03	0.01	< 300	< 300	
Cc1sc(NC(=O)Cc2ccc(F)c(OCCOCCNc3ccc4c(c3)C(=O)N(C3CCC(=O)NC3=O)C4=O)c2)nc1-c1ccc2c(c1)CCN2C(=O)c1cncn1C (stereo not drawn) [Cpd. No. 29, 2-(3-(2-(2-((2-(2,6-dioxopiperidin-3-yl)-1,3-dioxoisoindolin-5-yl)amino)ethoxy)ethoxy)-4-fluorophenyl)-N-(5-methyl-4-(1-(1-methyl-1H-imidazole-5-carbonyl)indolin-5-yl)thiazol-2-yl)acetamide]	0.05	0.01	< 300	< 300	0.02
Cc1ccccc1C(=O)N1CCc2cc(-c3nc(NC(=O)Cc4cccc(OCCCCN5CCN(c6cccc7c6C(=O)N(C6CCC(=O)NC6=O)C7=O)CC5)c4)sc3C)ccc21 (stereo not drawn) [Cpd. No. 33, 2-(3-(4-(4-(2-(2,6-dioxopiperidin-3-yl)-1,3-dioxoisoindolin-4-yl)piperazin-1-yl)butoxy)phenyl)-N-(5-methyl-4-(1-(2-methylbenzoyl)indolin-5-yl)thiazol-2-yl)acetamide]	> 30	> 30			
Cc1sc(C(=O)NCc2cccc(OCCOCCNc3ccc4c(c3)C(=O)N(C3CCC(=O)NC3=O)C4=O)c2)nc1-c1ccc2c(c1)CCN2C(=O)C1CC1 (stereo not drawn) [Cpd. No. 38, 4-(1-(cyclopropanecarbonyl)indolin-5-yl)-N-(3-(2-(2-((2-(2,6-dioxopiperidin-3-yl)-1,3-dioxoisoindolin-5-yl)amino)ethoxy)ethoxy)benzyl)-5-methylthiazole-2-carboxamide]	0.2	0.04			
Cc1sc(C(=O)Nc2cccc(OCCOCCNc3ccc4c(c3)C(=O)N(C3CCC(=O)NC3=O)C4=O)c2)nc1-c1ccc2c(c1)CCN2C(=O)C1CC1 (stereo not drawn) [Cpd. No. 39, 4-(1-(cyclopropanecarbonyl)indolin-5-yl)-N-(3-(2-(2-((2-(2,6-dioxopiperidin-3-yl)-1,3-dioxoisoindolin-5-yl)amino)ethoxy)ethoxy)phenyl)-5-methylthiazole-2-carboxamide]	> 30	> 30			
Cc1ccccc1C(=O)N1CCc2cc(-c3nc(NC(=O)Cc4cccc(OCCCN5CCN(c6ccc7c(c6)C(=O)N(C6CCC(=O)NC6=O)C7=O)CC5)c4)sc3C)ccc21 (stereo not drawn) [compound 25, 2-(3-(3-(4-(2-(2,6-dioxopiperidin-3-yl)-1,3-dioxoisoindolin-5-yl)piperazin-1-yl)propoxy)phenyl)-N-(5-methyl-4-(1-(2-methylbenzoyl)indolin-5-yl)thiazol-2-yl)acetamide]	> 30	> 30			
